According to the supplement of paper PMC10307832:

Experiments:
Assay in all cases: relative viability (nuclei count vs DMSO), 5 days (fraction); higher = more cells survive
SGI-1776 + Lapatinib = compound: CN1CCC(CNc2ccc3ncc(-c4cccc(OC(F)(F)F)c4)n3n2)CC1 [SGI-1776] + CS(=O)(=O)CCNCc1ccc(-c2ccc3ncnc(Nc4ccc(OCc5cccc(F)c5)c(Cl)c4)c3c2)o1 [Lapatinib] (partner 2 µM)
Outline: (§1)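 Lung cancer cell lines, seeded in 1536-well plates, were treated the following day by pin tool with a single drug or with five library-drug doses (not always all listed) in √10 steps on top of a fixed anchor-drug dose. Cells were fixed and nuclei stained in one step after 5 days, and nuclei were counted. Relative viability is the nuclei count for treated wells divided by that for vehicle wells, reported as medians of duplicate plates.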

SGI-1776 + Olaparib = compound: CN1CCC(CNc2ccc3ncc(-c4cccc(OC(F)(F)F)c4)n3n2)CC1 [SGI-1776] + O=C(c1cc(Cc2n[nH]c(=O)c3ccccc23)ccc1F)N1CCN(C(=O)C2CC2)CC1 [Olaparib] (partner 8 µM)
Outline: as §1

[1] = compound: C1COCCN1C2=NC(=NC3=C2OC4=C3C=CC=N4)C5=CC(=CC=C5)NC(=O)C6=CN=C(C=C6)N + CC(=O)c1c(C)c2cnc(Nc3ccc(N4CCNCC4)cn3)nc2n(C2CCCC2)c1=O [Palbociclib] (partner 0.5 µM)
Outline: as §1

[2] = compound: C1COCCN1C2=NC(=NC3=C2OC4=C3C=CC=N4)C5=CC(=CC=C5)NC(=O)C6=CN=C(C=C6)N + CS(=O)(=O)N1CCN(Cc2cc3nc(-c4cccc5[nH]ncc45)nc(N4CCOCC4)c3s2)CC1 [Pictilisib] (partner 1 µM)
Outline: as §1

Row | Cell Line | relative viability (SGI-1776 + Lapatinib; first compound 0.08 µM) | relative viability (SGI-1776 + Lapatinib; first compound 0.8 µM) | relative viability (SGI-1776 + Lapatinib; first compound 2.53 µM) | relative viability (SGI-1776 + Lapatinib; first compound 8 µM) | relative viability (SGI-1776 + Olaparib; first compound 0.08 µM) | relative viability (SGI-1776 + Olaparib; first compound 0.8 µM) | relative viability (SGI-1776 + Olaparib; first compound 2.53 µM) | relative viability (SGI-1776 + Olaparib; first compound 8 µM) | relative viability ([1]; first compound 0.02 µM) | relative viability ([1]; first compound 0.06325 µM) | relative viability ([1]; first compound 0.2 µM) | relative viability ([1]; first compound 0.6325 µM) | relative viability ([1]; first compound 2 µM) | relative viability ([2]; first compound 0.02 µM) | relative viability ([2]; first compound 0.06325 µM) | relative viability ([2]; first compound 0.2 µM) | relative viability ([2]; first compound 0.6325 µM) | relative viability ([2]; first compound 2 µM)
1 | RERF-LC-KJ | 0.867 | 0.868 | 0.728 | 0.795 | 0.866 | 0.92 | 0.802 | 0.586 | 1.04 | 1.15 | 1.21 | 1 | 0.764 | 0.46 | 0.618 | 0.508 | 0.507 | 0.478
2 | NCI-H1915 | 0.981 | 0.95 | 0.972 | 0.949 | 0.256 | 0.265 | 0.248 | 0.23 | 0.516 | 0.573 | 0.512 | 0.613 | 0.48 | 0.924 | 0.96 | 0.927 | 0.898 | 0.845
3 | NCI-H647 | 1.17 | 0.915 | 1.01 | 0.601 | 0.67 | 0.484 | 0.438 | 0.206 | 0.408 | 0.433 | 0.38 | 0.279 | 0.25 | 0.465 | 0.483 | 0.418 | 0.353 | 0.339
4 | SK-LU-1 | 0.861 | 1.03 | 0.782 | 0.667 | 0.514 | 0.5 | 0.452 | 0.5 | 0.382 | 0.382 | 0.371 | 0.367 | 0.359 | 0.553 | 0.671 | 0.634 | 0.536 | 0.467
5 | NCI-H441 |  |  |  |  | 0.569 | 0.521 | 0.608 | 0.491 | 0.208 | 0.178 | 0.198 | 0.175 | 0.198 | 0.564 | 0.585 | 0.427 | 0.447 | 0.345
6 | COR-L 105 | 0.332 | 0.394 | 0.388 | 0.244 | 0.775 | 0.726 | 0.77 | 0.631 | 0.413 | 0.403 | 0.371 | 0.363 | 0.359 | 0.433 | 0.351 | 0.389 | 0.344 | 0.33
7 | NCI-H2009 | 0.985 | 0.897 | 1 | 0.766 | 0.714 | 0.769 | 0.688 | 0.623 | 0.195 | 0.224 | 0.144 | 0.223 | 0.202 | 0.8 | 0.819 | 0.804 | 0.804 | 0.603
8 | NCI-H1563 | 0.869 | 0.939 | 1.02 | 0.825 |  |  |  |  |  |  |  |  |  | 0.632 | 0.618 | 0.622 | 0.626 | 0.604
9 | PC-14 | 0.337 | 0.31 | 0.261 | 0.209 | 0.285 | 0.367 | 0.305 | 0.114 | 0.482 | 0.562 | 0.562 | 0.284 | 0.189 | 0.903 | 1.05 | 0.512 | 0.558 | 0.261
10 | NCI-H1703 | 1.3 | 0.922 | 0.608 | 0.257 | 0.338 | 0.394 | 0.387 | 0.12 |  |  |  |  |  | 0.23 | 0.255 | 0.239 | 0.251 | 0.232
